In ChEMBL document CHEMBL4627358, “A hypoxia-activated antibacterial prodrug” (Bioorg Med Chem Lett, 2020):
≈ marks a conversion by molar mass, not a printed value.

What was measured:
[1] = tested on: Escherichia coli; assay: Antibacterial activity against Escherichia coli K-12 assessed as bacterial growth inhibition measured after 16 to 20 hrs by CLSI protocol based broth microdilution method; type: functional
[2] = tested on: Staphylococcus aureus; assay: Antibacterial activity against Staphylococcus aureus ATCC 49775 assessed as bacterial growth inhibition measured after 16 to 20 hrs by CLSI protocol based broth microdilution method; type: functional

MIC [1] [mg/L] | MIC [2] [mg/L] | SMILES
4 (≈ 8.3 µM) | 2 (≈ 4.15 µM) | CCCCCCCCN(Cc1c2ccccc2c(Cl)c2ccccc12)C(=O)C(N)CCCCN (centres undefined)
> 256 | > 256 | CCCCCCCCN(Cc1c2ccccc2c(Cl)c2ccccc12)C(=O)C(CCCCNC(=O)OCc1ccc([N+](=O)[O-])cc1)NC(=O)OCc1ccc([N+](=O)[O-])cc1 (centres undefined)
